# Measurements published in PMC11986510, “Duplexed CeTEAM drug biosensors reveal determinants of PARP inhibitor selectivity in cells” (The Journal of Biological Chemistry, 2025).
# Read-outs that look alike come from different tables or passages of the source.
# Columns and labels:
# PARP2 L269A-mCherry [1] = target: T1, PARP2 L269A-mCherry (Homo sapiens, UniProt Q9UGN5, L282A); assay: cell-based; format: cell-based
# PARP1 [2] = conditions: reported value, footnote b: cell-based assay; literature-derived, no reference given; cited from earlier work
# U-2 OS cells [3] = assay: S/G2-phase cell cycle shift from median Hoechst 33342 intensity (trapping-like phenotype); format: cell-based, human; conditions: for S/G2 enrichment in words: median Hoechst intensity
# PARP2 [4] = conditions: reported value, footnote b: cell-based assay; literature-derived, no reference given; cited from earlier work
# PARP2 L269A-mCherry [5] = target: T1, PARP2 L269A-mCherry; format: cell-based; conditions: 10 μM, 16 h; hit = statistically significant (p < 0.05)
# PARP2 [6] = conditions: cited from earlier work
# PARP1 [7] = conditions: cited from earlier work
# PARP2 [8] = tested on: PARP2; set-up: method as in PMID 36961901; conditions: reported; ref [23]; cited from earlier work
# PARP2 L269A-mCherry [9] = target: T1, PARP2 L269A-mCherry; conditions: shNT and shHPF1 cells, 24 h
# PARP2 [10] = conditions: biophysical measures; ref [26]; cited from earlier work
# U-2 OS cells [11] = assay: cells; conditions: Homo sapiens, U2OS, 24 h
# PARP2 L269A-mCherry [12] = target: T1, PARP2 L269A-mCherry; conditions: 24-h PARPi treatment
# PARP2 [13] = target: PARP2 (Homo sapiens, UniProt Q9UGN5); conditions: 10 μM olaparib, CCRF-CEM lysate, 37-70 °C
# Chain of PARP2 (Homo sapiens, UniProt Q9UGN5) (Q9UGN5 whole entry): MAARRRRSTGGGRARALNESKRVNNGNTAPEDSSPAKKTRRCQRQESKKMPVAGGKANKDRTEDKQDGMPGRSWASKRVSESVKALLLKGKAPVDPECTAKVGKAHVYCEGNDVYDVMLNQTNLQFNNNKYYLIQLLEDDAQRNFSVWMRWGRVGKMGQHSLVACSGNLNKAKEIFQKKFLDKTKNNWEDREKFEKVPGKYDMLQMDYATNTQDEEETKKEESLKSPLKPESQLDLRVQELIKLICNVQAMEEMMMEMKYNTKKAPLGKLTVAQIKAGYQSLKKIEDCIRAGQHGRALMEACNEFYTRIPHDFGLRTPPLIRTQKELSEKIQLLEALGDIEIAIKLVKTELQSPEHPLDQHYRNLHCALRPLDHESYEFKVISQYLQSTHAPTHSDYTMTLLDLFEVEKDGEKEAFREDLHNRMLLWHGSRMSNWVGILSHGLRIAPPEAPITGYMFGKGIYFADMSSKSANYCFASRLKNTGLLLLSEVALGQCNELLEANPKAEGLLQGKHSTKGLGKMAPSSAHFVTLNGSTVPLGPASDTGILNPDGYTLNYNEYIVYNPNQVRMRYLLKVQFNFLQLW
# U-2 OS cells [14] = conditions: 24 h PARPi
# [15] = Homo sapiens, U2OS, 24 h, read-out: S/G2 shift EC50
# [16] = PARP2 L269A-mCherry EC50, CeTEAM stabilization, live U-2 OS dual biosensor cells, 24 h PARPi gradient, n = 3
# [17] = Homo sapiens, U2OS, 24 h, read-out: S/G2 shift EC50 (text)
# [18] = reported value, footnote a: biochemical assay, literature-derived, no reference given, read-out: PARP2 IC50
# [19] = reported value, footnote a: biochemical assay, literature-derived, no reference given, read-out: PARP1 IC50
# [20] = CeTEAM stabilization, live U-2 OS dual biosensor cells, 24 h PARPi gradient, n = 3, read-out: PARP2 L269A-mCherry EC50
# [21] = median Hoechst intensity change, 24 h PARPi gradient, PARP1/2 biosensor U-2 OS cells, read-out: S/G2 shift EC50
# [22] = read-out: S/G2 shift EC50, shHPF1
# [23] = read-out: S/G2 shift EC50, shNT
# T1 sequence (Q9UGN5 other isoform, or with tags, fused parts or gaps L269A): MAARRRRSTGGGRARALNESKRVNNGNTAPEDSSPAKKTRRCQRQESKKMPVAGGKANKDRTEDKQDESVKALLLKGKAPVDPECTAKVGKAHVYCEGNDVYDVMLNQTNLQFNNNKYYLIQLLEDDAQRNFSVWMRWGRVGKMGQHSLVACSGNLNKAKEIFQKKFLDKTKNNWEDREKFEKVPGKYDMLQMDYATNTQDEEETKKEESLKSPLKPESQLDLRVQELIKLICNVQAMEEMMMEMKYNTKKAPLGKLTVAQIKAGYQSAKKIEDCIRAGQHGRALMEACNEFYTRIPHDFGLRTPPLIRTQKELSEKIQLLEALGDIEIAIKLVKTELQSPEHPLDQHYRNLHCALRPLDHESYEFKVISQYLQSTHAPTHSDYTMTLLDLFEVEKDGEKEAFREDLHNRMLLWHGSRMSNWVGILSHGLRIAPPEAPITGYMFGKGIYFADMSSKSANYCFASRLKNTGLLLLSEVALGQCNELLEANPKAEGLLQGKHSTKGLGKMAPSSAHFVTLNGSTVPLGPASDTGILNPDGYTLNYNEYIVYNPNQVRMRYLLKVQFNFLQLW
molecule,measurement,setting,value
"Oc1cccc2c(O)nccc12 [1,5-Isoquinolinediol]",EC50,PARP2 L269A-mCherry [1]; PARP2 L269A-mCherry EC50,1000 nM
"NC(=O)c1cccc(N)c1 [3-AB, 3-aminobenzamide]",IC50,PARP1 [2],[…]
same,S/G2 enrichment in words,U-2 OS cells [3]; 24 h,no observable activity
NC(=O)c1cccc2nc(-c3ccc([C@@H]4CCCN4)cc3F)[nH]c12 [A-966492],IC50,PARP2 [4],1.5 nM
same,IC50,PARP1 [2],1 nM
same,EC50,U-2 OS cells [3]; [15],41.6 nM
CN(C)Cc1ccc(-c2nc3cccc4c3n2CCNC4=O)cc1 [AG14361],EC50,PARP2 L269A-mCherry [1]; [16],84 nM
same,IC50,PARP1 [2],14 nM
same,EC50,U-2 OS cells [3]; [15],1120 nM
O=C(Nc1c[nH]nc1-c1nc2ccc(CN3CCOCC3)cc2[nH]1)NC1CC1 [AT9283],PARP2 L269A-mCherry abundance change versus DMSO control,PARP2 L269A-mCherry [5],modest but significant effect
Cc1cc(Nc2nc(N[C@@H](C)c3ccc(F)cc3)c(C#N)cc2F)[nH]n1 [AZ960],PARP2 L269A-mCherry abundance change versus DMSO control,PARP2 L269A-mCherry [5],also affected PARP2 L269A-mCherry
N#Cc1cccnc1N1CCN(C(=O)c2cccc(Cc3n[nH]c(=O)c4ccccc34)c2)CC1 [AZ9482],IC50,PARP2 [4],1 nM
same,EC50,U-2 OS cells [3]; [15],0.351 nM
same,EC50,U-2 OS cells [3]; [17],0.35 nM
COC1CCN(C(=O)c2cc(Cc3n[nH]c(=O)c4ccccc34)ccc2F)CC1 [AZD2461],EC50,PARP2 L269A-mCherry [1]; [16],36.3 nM
same,IC50,PARP2 [6]; [18],2 nM
same,IC50,PARP1 [7]; [19],5 nM
same,EC50,U-2 OS cells [3]; [15],146 nM
CCc1cc2ncc(CN3CCN(c4ccc(C(=O)NC)nc4)CC3)cc2[nH]c1=O [AZD5305],IC50,PARP2 [6]; [18],1400 nM
same,EC50,U-2 OS cells [3]; [15],60.7 nM
same,EC50,U-2 OS cells [3]; [17],~61 nM
Cn1cccc1/C=C1\C(=O)NC(=O)c2ccccc21 [BYK204165],EC50,PARP2 L269A-mCherry [1]; [20],1670 nM
same,IC50,PARP2 [6]; [18],4170 nM
O=c1[nH]nc2c3c(cccc13)N=C(CN1Cc3ccccc3C1)N2 [E7449],IC50,PARP2 [6]; [18],[…]
same,EC50,U-2 OS cells [3]; [21],3970 nM
O=C(c1cc(Cc2n[nH]c(=O)c3ccccc23)ccc1F)N1CCn2nc(C(F)(F)F)nc2C1 [Fluzoparib],EC50,PARP2 L269A-mCherry [1]; [16],27.3 nM
same,EC50,U-2 OS cells [3]; [15],46300 nM
NC(=O)c1ccc(I)c([N+](=O)[O-])c1 [Iniparib],PARP2 L269A-mCherry stabilization in words,"PARP2 L269A-mCherry [1]; concentration gradient, 24 h",inactive
same,PARP2 L269A-mCherry biosensor response irrespective of HPF1 levels,PARP2 L269A-mCherry [9],unaffected
O=c1[nH]c(SCCN2CCN(c3ccccn3)CC2)nc2ccccc12 [MC2050],EC50,PARP2 L269A-mCherry [1]; [20],2500 nM
same,IC50,PARP2 [6]; [18],549 nM
same,IC50,PARP1 [7]; [19],9.3 nM
CNCc1ccc(-c2cc3cc(F)cc(C(N)=O)c3o2)cc1 [Mefuparib],EC50,PARP2 L269A-mCherry [1]; [16],91.6 nM
same,IC50,PARP2 [6]; [18],1.9 nM
same,IC50,PARP1 [7]; [19],3.2 nM
same,EC50,U-2 OS cells [3]; [15],2.36 nM
"NC(=O)c1cc(F)cc2c1C(=O)N(C1CCN(C3CCC(F)(F)CC3)CC1)C2 [NMS-P118, 2-[1-(4,4-Difluorocyclohexyl)piperidin-4-yl]-6-fluoro-3-oxo-2,3-dihydro-1H-isoindole-4-carboxamide]",IC50,PARP2 [6]; [18],1390 nM
same,IC50,PARP1 [7]; [19],9 nM
same,EC50,U-2 OS cells [3]; [15],5880 nM
"NC(=O)c1cccc2cn(-c3ccc([C@@H]4CCCNC4)cc3)nc12 [Niraparib, 2-{4-[(3S)-piperidin-3-yl]phenyl}-2H-indazole-7-carboxamide]",Binding to PARP2 worse than to PARP1,PARP2 [10],~50 fold
same,EC50,U-2 OS cells [11]; [22],1.74 nM
same,EC50,U-2 OS cells [11]; [23],7.85 nM
same,PARP2 L269A-mCherry stabilization by Western blot,PARP2 L269A-mCherry [12],stabilized PARP2 L269A significantly worse than PARP1 L713F
O=C(c1cc(Cc2n[nH]c(=O)c3ccccc23)ccc1F)N1CCN(C(=O)C2CC2)CC1 [Olaparib],EC50,U-2 OS cells [11]; [22],1.89 nM
same,EC50,U-2 OS cells [11]; [23],14.4 nM
same,Endogenous PARP2 stability by CETSA,PARP2 [13],negligible shifts
same,IC50,PARP2 [6]; [18],1 nM
same,EC50,U-2 OS cells [3]; [15],25.7 nM
Cc1nc(Nc2[nH]nc3c2CN(C(=O)N[C@H](CN(C)C)c2ccccc2)C3(C)C)c2sccc2n1 [PF-3758309],PARP2 L269A-mCherry abundance change versus DMSO control,PARP2 L269A-mCherry [5],also affected PARP2 L269A-mCherry
CN(C)CC(=O)Nc1ccc2[nH]c(=O)c3ccccc3c2c1 [PJ34],PARP2 cellular EC50 worse than reported IC50,PARP2 L269A-mCherry [1]; CeTEAM EC50 compared to reported IC50,> 10 fold
same,IC50,PARP1 [7]; [19],110 nM
same,EC50,U-2 OS cells [3]; [21],3750 nM
C[C@]12CCCN1CC1=NNC(=O)c3cc(F)cc4[nH]c2c1c34 [Pamiparib],EC50,PARP2 L269A-mCherry [1]; [16],1.47 nM
same,IC50,PARP2 [6]; [18],0.5 nM
same,EC50,U-2 OS cells [3]; [15],2.96 nM
CNCc1ccc(-c2[nH]c3cc(F)cc4c3c2CCNC4=O)cc1 [Rucaparib],EC50,U-2 OS cells [3]; [15],23.7 nM
O=C(c1cc(Cn2c(=O)[nH]c(=O)c3c(F)cccc32)ccc1F)N1CCN(c2ncccn2)CC1 [Senaparib],EC50,PARP2 L269A-mCherry [1]; PARP2 L269A-mCherry EC50,5.26 nM
same,EC50,PARP2 L269A-mCherry [1]; PARP2 L269A-mCherry stabilization EC50,5.3 nM
same,IC50,PARP2 [6]; [18],1.6 nM
same,IC50,PARP1 [7]; [19],0.48 nM
same,EC50,U-2 OS cells [3]; [15],0.398 nM
same,EC50,U-2 OS cells [3]; [17],0.4 nM
Cn1ncnc1[C@H]1c2n[nH]c(=O)c3cc(F)cc(c23)N[C@@H]1c1ccc(F)cc1 [Talazoparib],EC50,U-2 OS cells [11]; [22],0.09 nM
same,EC50,U-2 OS cells [11]; [23],0.29 nM
same,EC50,U-2 OS cells [3]; [15],0.278 nM
same,EC50,U-2 OS cells [3]; [17],0.28 nM
CC(C)(O)c1ccc(-c2nc3c(F)cc(F)cc3c(=O)[nH]2)cc1 [Tankyrase-IN-2],EC50,PARP2 L269A-mCherry [1]; [20],13200 nM
same,IC50,PARP1 [7]; [19],710 nM
same,S/G2 enrichment in words,U-2 OS cells [3]; 24 h,no observable activity
C[C@]1(c2nc3c(C(N)=O)cccc3[nH]2)CCCN1 [Veliparib],EC50,"U-2 OS cells [14]; read-out: S/G2 shift EC50, shHPF1, HPF1 knockdown",55 nM
same,EC50,"U-2 OS cells [14]; read-out: S/G2 shift EC50, shNT, control hairpin shNT",709 nM
same,EC50,U-2 OS cells [3]; [21],528 nM
O=C(c1cc(Cc2n[nH]c(=O)c3ccccc23)ccc1F)N1CC(CNC2CC2)C1 [Venadaparib],EC50,PARP2 L269A-mCherry [1]; [16],5.94 nM
same,EC50,"PARP2 L269A-mCherry [1]; PARP2 L269A-mCherry stabilization EC50, live-cell CeTEAM, 24 h",5.94 nM
same,IC50,"PARP2 [6]; biochemical inhibition data, ref [30], [31], read-out: Biochemical inhibition of PARP2",3 nM
same,IC50,"PARP1 [7]; biochemical inhibition data, ref [30], [31], read-out: Biochemical inhibition of PARP1",0.8 nM
same,EC50,U-2 OS cells [3]; [15],197 nM
bisindolylmaleimide I,PARP2 L269A-mCherry abundance change versus DMSO control,PARP2 L269A-mCherry [5],significantly decreased
